Results on twelve compounds are retold here after patent publication US4618627A, “Catechol derivatives and pharmaceutical compositions thereof for inhibiting anaphylaxis (SRS-A)” (priority 1983, dated 1986).

Test [1] relates to antigen-induced histamine release. Briefly: Passive peritoneal anaphylaxis (PPA) in rats: histamine release. In kind it is in vivo, male Wistar rats. As to conditions: 100 μg/kg i.p.; for inhibition at 0.1 mg/kg: Rattus norvegicus, ip, 30 sec before antigen, histamine, DSCG value is mean of 3 rats (footnote 1). As to the method: (A) Passive peritoneal anaphylaxis (PPA) in rats The method was based on that of Orange et al^(1). […] After 4 hr, 5 ml of Tyrode solution containing 250 μg heparin and 2 mg DNP-BSA was injected i.p. Test drugs (100 μg/kg) were dissolved in 0.6 ml of saline and injected i.p. 30 sec before antigen administration. Five min. later, the rats were decapitated and the peritoneal fluid was collected by opening the peritoneal cavity into polycarbonate tubes in ice. The supernatant was separated for bioassay from the cellular residue by centrifugation at 2000 rpm for 5 min at 4° C. […] One unit of SRS-A refers to the concentration required to produce a contraction of the guinea-pig ileum equal in amplitude to that produced by 5 ng histamine base in that assay.

The subject of test [2] is antigen-induced SRS-A release. The experiment in a line: Passive peritoneal anaphylaxis (PPA) in rats: SRS-A release. The test is classed as in vivo, male Wistar rats. As to conditions: Rattus norvegicus, ip, 100 μg/kg i.p., 30 sec before antigen, DSCG value is mean of 3 rats (footnote 1). The protocol:
(A) Passive peritoneal anaphylaxis (PPA) in rats
The method was based on that of Orange et al^(1). Briefly, male Wistar rats weighing 275 to 325 g (Shizuoka Exp. Animal Agric, Coop. Assoc.) were sensitized by intraperitoneally (i.p.) injecting 5 ml of diluted (40-fold) mouse anti-DNP reaginic serum (PCA titer: 1280). After 4 hr, 5 ml of Tyrode solution containing 250 μg heparin and 2 mg DNP-BSA was injected i.p. Test drugs (100 μg/kg) were dissolved in 0.6 ml of saline and injected i.p. 30 sec before antigen administration. Five min. later, the rats were decapitated and the peritoneal fluid was collected by opening the peritoneal cavity into polycarbonate tubes in ice. The supernatant was separated for bioassay from the cellular residue by centrifugation at 2000 rpm for 5 min at 4° C.
Histamine and SRS-A were assayed using isolated guinea-pig ileum in the presence of 10^-7 M FPL-55712 and 10^-6 M mepyramine, respectively, in addition to 5×10^-7 M atropine. One unit of SRS-A refers to the concentration required to produce a contraction of the guinea-pig ileum equal in amplitude to that produced by 5 ng histamine base in that assay.

A further test deals with cyclooxygenase. The experiment in a line: Assay of cyclooxygenase. As to conditions: enzyme fraction from mastocytoma P-815 cells, [1-14C]-arachidonic acid, 37° C., 7 min, Probit method; for IC50: read-out: IC 50 Cyclooxygenase. In kind it is biochemical. As to the method: (§1) (B) Assay of 5-lipoxygenase and cyclooygenase
(§2) The method was based on that of Koshihara et al^(1). In the case of assay of 5-lipoxygenase activity, an enzyme fraction from mastocytoma P-815 cells (10^7 cells/ml) was incubated with 0.2 μCi [1-^14 C]-arachidonic acid (56.9 Ci/mol), 0.8 mM CaCl2, 2×10^-5 M indoemthacin and various concentrations of test drugs at 37° C. for 5 min. In the case of assay of cyclooxygenase activity, CaCl2 and indomethacin were omitted from the above incubation mixture and incubation was performed at 37° C. for 7 min. Both reactions were terminated by adjusting the pH of the mixture to 3.0 with HCl. After extraction of the products with 8 volume ethyl acetate, each extract was concentrated and applied to TLC plate. For the separation of HETEs and prostaglandins, thin-layer chromatography was carried out using the solvent system: petroleum ether/diethyl ether/acetic acid (50:50:1) and ethyl acetate/2,2,4-trimethylpentane/acetic acid/water (11:5:2:10, upper phase), respectively. Radioactive spots were detected by autoradiography and scraped off and counted using a liquid scintillation spectrometer. The activities of 5-lipoxygenase and cyclooxygenase were expressed as the sum of radioactivities due to 5-HETE and 5,12-diHETE and due to PGD2, PGE2 and PGF2α, respectively. The IC 50 values were calculated by Probit method.

A further test has as its target T1, 5-lipoxygenase (Mus musculus, UniProt P48999).
T1 construct: endogenous in cells
T1 sequence (P48999 1-674): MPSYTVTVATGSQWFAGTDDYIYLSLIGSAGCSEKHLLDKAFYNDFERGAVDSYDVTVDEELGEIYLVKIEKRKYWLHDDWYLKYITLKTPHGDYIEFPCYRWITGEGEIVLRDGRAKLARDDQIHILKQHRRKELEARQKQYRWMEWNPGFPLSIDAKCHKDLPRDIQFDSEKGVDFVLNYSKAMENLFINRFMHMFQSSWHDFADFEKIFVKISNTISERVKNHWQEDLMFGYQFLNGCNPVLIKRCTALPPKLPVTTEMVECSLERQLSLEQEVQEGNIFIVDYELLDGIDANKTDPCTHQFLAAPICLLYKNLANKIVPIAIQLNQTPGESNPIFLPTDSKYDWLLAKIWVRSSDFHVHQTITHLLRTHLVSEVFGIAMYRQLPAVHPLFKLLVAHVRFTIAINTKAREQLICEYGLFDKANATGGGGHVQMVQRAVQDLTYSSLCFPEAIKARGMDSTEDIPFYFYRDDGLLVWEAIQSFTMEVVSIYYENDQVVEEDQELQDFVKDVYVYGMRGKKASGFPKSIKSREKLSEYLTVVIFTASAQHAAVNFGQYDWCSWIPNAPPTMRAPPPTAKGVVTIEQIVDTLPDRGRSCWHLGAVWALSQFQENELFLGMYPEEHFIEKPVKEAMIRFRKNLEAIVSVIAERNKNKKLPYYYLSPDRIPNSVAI
Briefly: Assay of 5-lipoxygenase. In kind it is biochemical. As to conditions: enzyme fraction from mastocytoma P-815 cells, [1-14C]-arachidonic acid, 37° C., 5 min; Probit method; read-out: IC 50 5-Lipoxygenase. As to the method: as §1, §2

Regarding `O=C(O)c1cc(=O)c2c(OCC(O)COc3cccc4oc(C(=O)O)cc(=O)c34)cccc2o1` [DSCG, disodium cromoglycate, reference compound], the inhibition (usually the relative decrease from the control value, in per cent) at 0.1 mg/kg in test [1] turned out to be 75.2%; in test [2] it was 46.6%. In test [1] (rat PPA), the “inhibition of histamine release (selectivity versus SRS-A)” value is recorded as “inhibited the histamine release in a relatively selective manner”.

As for `CCCCC(C)C(O)CCc1ccc(O)c(O)c1` (centres unmarked) [Example 1, 1-(3,4-dihydroxyphenyl)-4-methyl-3-octanol], the values for the inhibition at 0.1 mg/kg in test [1] and in test [2] were 37.8% and 76.6%, respectively. On cyclooxygenase, the “IC 50 Cyclooxygenase” value is reported as “En- hanced”. For the same compound, the IC50 at 5-lipoxygenase worked out at 300 nM.

As for `CCCCCCC(O)CCc1ccc(O)c(O)c1` (centres unmarked) [Example 2, 1-(3,4-dihydroxyphenyl)-3-nonanol], the inhibition at 0.1 mg/kg in test [1] came out at 5.2%; in test [2], 57.3%.

With `CCCCCCC(=O)CCc1ccc(O)c(O)c1` [Example 3, 1-(3,4-dihydroxyphenyl)-3-nonanone], the values for the inhibition at 0.1 mg/kg in test [1] and in test [2] were 22.6% and 53.9%, respectively.

Regarding `CCCCCCCCC(O)CCc1ccc(O)c(O)c1` (centres unmarked) [Example 9, 1-(3,4-Dihydroxyphenyl)-3-undecanol], the inhibition at 0.1 mg/kg came to 21.6% in test [1] and 53.6% in test [2]. In addition, the IC50 is > 10000 nM at cyclooxygenase and 100 nM on 5-lipoxygenase.

For `CCCCCC(C)C(O)CCc1ccc(O)c(O)c1` (centres unmarked) [Example 11, 1-(3,4-Dihydroxyphenyl)-4-methyl-3-nonanol], the inhibition at 0.1 mg/kg in test [1] came out at 17.6%; in test [2], 66.6%.

`CCCCCCCCCC(=O)Cc1ccc(O)c(O)c1` [Example 14, 1-(3,4-dihydroxyphenyl)-2-undecanone]: the inhibition at 0.1 mg/kg in test [1] turned out to be 32.7%; in test [2], 58.9%.

As for `CCCCCCC(O)CCCc1ccc(O)c(O)c1` (centres unmarked) [Example 15, 1-(3,4-dihydroxyphenyl)-4-decanol], the values for the inhibition at 0.1 mg/kg in test [1] and in test [2] were 18.4% and 46.2%, respectively.

As to `CC(=O)CCCCCCCc1ccc(O)c(O)c1` [Example 20, 9-(3,4-dihydroxyphenyl)-2-nonanone], the inhibition at 0.1 mg/kg in test [1] came out at 17.9%; in test [2] it was 62.8%. At 5-lipoxygenase, the IC50 is 230 nM.

Turning to `OCCCCCCCCCCCc1ccc(O)c(O)c1` [Example 23, 11-(3,4-dihydroxyphenyl)-1-undecanol], the inhibition at 0.1 mg/kg in test [1] is 10.7%; in test [2], 69.6%. The IC50 was > 10000 nM at cyclooxygenase and 54 nM at 5-lipoxygenase.

`OCCCCCCCCCc1ccc(O)c(O)c1` [Example 25A, 9-(3,4-Dihydroxyphenyl)-1-nonanol]: the inhibition at 0.1 mg/kg is -8.3% in test [1] and 43.9% in test [2].

With `CCCCCC(C)C(=O)C=Cc1ccc(O)c(O)c1` (centres unmarked) [Example 29, 1-(3,4-dihydroxyphenyl)-4-methyl-1-nonen-3-one], the inhibition at 0.1 mg/kg in test [1] is -32.4%; in test [2], 38.2%.
